The source of these data is US20250049036A1 (priority 2021, published 2025).

The subject of one experiment is Phytophthora infestans. The experiment in a line: microbe, parasite or virus in culture. It counts as cell-based. The note with it: 168 h, read-out: control compared to the untreated check.
The next experiment relates to Parastagonospora nodorum. The experiment in a line: Parastagonospora nodorum (PARANO) spore growth inhibition in liquid medium, 96-well microtiter plate, OD 600. Particulars: spore suspension in PDB liquid medium, 18° C., 5-6 days, OD at 600, read-out: control compared to the untreated check. It counts as cell-based. A digest of the protocol: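 Read-out is percent growth inhibition from OD at 600 after 5-6 days at 18° C. Compounds, dissolved in DMSO, were diluted in potato dextrose broth and combined in equal volume with a 10^5 spores/ml suspension of PARANO.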

The subject of experiment [1] is Botrytis cinerea. The experiment can be described thus: Botrytis cinerea (gray mold) mycelial radial growth on potato dextrose agar. Particulars: 168 h, 22° C., seven days, read-out: control compared to the untreated check. In kind it is cell-based. On the procedure:
The compounds were dissolved in 0.3% dimethyl sulfoxide and then added to potato dextrose agar medium just prior to dispensing it into petri dishes. 5 mL medium, with the compound in the desired concentration, was dispensed into 60 mm sterile petri-plates. After solidification, each plate was seeded with a 5 mm size mycelial disc taken from the periphery of an actively growing virulent culture plate. The plates were incubated in growth chambers at 22° C. temperature and 90% relative humidity for seven days and the radial growth was measured and compared to the one of the untreated control.

Experiment [2] relates to Botrytis cinerea. The experiment in a line: Botrytis cinerea liq. (BOTRCI) spore growth inhibition in liquid medium, 96-well microtiter plate, OD 405 nm. It counts as cell-based. The note with it: spore suspension in YBA liquid medium, 22° C., 5-6 days, OD at 405 nm, read-out: control compared to the untreated check. On the procedure:
Yeast bacterial peptone and sodium acetate (YBA) liquid medium containing a BOTRCI (10^4 spores/ml) spore suspension was prepared. For the inhibition assay, each test compound was solved in dimethyl sulfoxide. 100 μl of the test compound in media-solution was added to a 96-well microtiter plate, consequently, the same volume (100 μl) of spore suspension was added to the well making the final test concentrations and the plate was incubated at 22° C. for 5-6 days. The growth inhibition was evaluated by measuring the OD at 405 nm. Percent inhibition was calculated with the below formula:
Where T=treatment, C=control, and B=blank

In experiment [3] the test system is Botrytis cinerea. The experiment can be described thus: Botrytis cinerea test on tomato, preventive, greenhouse. The note with it: preventive spray on bean/chili plants (heading: tomato), inoculated one day after treatment, read-out: control (efficacy, disease severity) compared to the untreated check. In kind it is in vivo.
The next experiment deals with Phakopsora pachyrhizi. The experiment can be described thus: Phakopsora pachyrhizi test on soybean, preventive, greenhouse. In kind it is in vivo. The note with it: preventive spray on soybean, inoculated one day after treatment, read-out: control (efficacy, disease severity) compared to the untreated check. The method, boiled down: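 Greenhouse-grown young soybean plants were sprayed with compound (2% DMSO/acetone, emulsifier in water) at the stated rate. One day later they were inoculated with 2×10^5 P. pachyrhizi inoculum and held at 22-24 °C, 80-90% relative humidity for disease development.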

The subject of a further experiment is Pyricularia oryzae. The experiment can be described thus: microbe, parasite or virus in culture. In kind it is cell-based. Particulars: 168 h, read-out: control compared to the untreated check.
The subject of a further experiment is Colletotrichum capsici. The experiment in a line: Colletotrichum capsici (anthracnose) mycelial radial growth on potato dextrose agar. It counts as cell-based. Particulars: Colletotrichum truncatum, 168 h, 25° C., seven days, read-out: control compared to the untreated check. The procedure: The compounds were dissolved in 0.3% dimethyl sulfoxide and then added to potato dextrose agar medium just prior to dispensing it into petri dishes. 5 mL medium, with the compound in the desired concentration, was dispensed into 60 mm sterile petri-plates. After solidification, each plate was seeded with a 5 mm size mycelial disc taken from the periphery of an actively growing virulent culture plate. The plates were incubated in growth chambers at 25° C. temperature and 60% relative humidity for seven days and the radial growth was measured and compared to the one of the untreated control.

The structures appear in SMILES notation.

In the case of `Cc1cccc(CC(C)(C)NC(=O)c2cnc3c(ccn3C)c2)c1` [Compound 27, 1-methyl-N-(2-methyl-1-(m-tolyl)propan-2-yl)-1H-pyrrolo[2,3-b] pyridine-5-carboxamide], the inhibition of growth at 300 ppm with Phytophthora infestans and in the experiment on Parastagonospora nodorum was no less than 70% each time.
Consider `COc1ccccc1CC(C)(C)NC(=O)c1cnc2c(c1)c(F)cn2C` [Compound 72, 3-fluoro-N-(1-(2-methoxyphenyl)-2-methylpropan-2-yl)-1-methyl-1H-pyrrolo[2,3-b]pyridine-5-carboxamide], for which the inhibition of growth at 300 ppm in the experiment with Botrytis cinerea [1] and with Botrytis cinerea [2] was no less than 70% in each case.
Take `Cn1ccc2cc(C(=O)NC3(C)Cc4ccccc4C3)cnc21` [Compound 78, 1-methyl-N-(2-methyl-2,3-dihydro-1H-inden-2-yl)-1H-pyrrolo[2,3-b] pyridine-5-carboxamide]: the inhibition of growth at 300 ppm in the experiment on Botrytis cinerea [1], with Parastagonospora nodorum and with Botrytis cinerea [2] was no less than 70% each time.
Consider `CN1CCOc2cc(C(=O)NC(C)(C)Cc3ccccc3)cnc21` [Compound 82, 4-methyl-N-(2-methyl-1-phenylpropan-2-yl)-3,4-dihydro-2H-pyrido[3,2-b] [1,4]oxazine-7-carboxamide], for which the inhibition of growth at 300 ppm in the experiment on Botrytis cinerea [1], in the experiment on Parastagonospora nodorum and in the experiment on Botrytis cinerea [2] was no less than 70% in each case.
As to `Cn1ccc2ncc(C(=O)NC(C)(C)Cc3ccccc3)cc21` [Compound 86, 1-methyl-N-(2-methyl-1-phenylpropan-2-yl)-1H-pyrrolo[3,2-b] pyridine-6-carboxamide], the inhibition of growth at 300 ppm in the experiment on Phytophthora infestans and with Parastagonospora nodorum was no less than 70% each time. The pest or weed control at 500 ppm with Botrytis cinerea [3] and in the experiment on Phakopsora pachyrhizi was no less than 70% each time.
On to `CC(C)(Cc1ccccc1)NC(=O)c1cnc2cc[nH]c2c1` [Compound 95, N-(2-methyl-1-phenylpropan-2-yl)-1H-pyrrolo[3,2-b] pyridine-6-carboxamide], for which the inhibition of growth at 300 ppm with Phytophthora infestans and with Parastagonospora nodorum was no less than 70% each time. Moreover, the pest or weed control at 500 ppm in the experiment on Botrytis cinerea [3] and in the experiment on Phakopsora pachyrhizi was no less than 70% in each case.
As to `COc1cc(C(O)C(C)(C)NC(=O)c2cnc3ccsc3c2)ccc1F` (stereo not shown) [Compound 119, N-(1-(4-fluoro-3-methoxyphenyl)-1-hydroxy-2-methylpropan-2-yl)thieno[3,2-b] pyridine-6-carboxamide], the inhibition of growth at 300 ppm in the experiment on Pyricularia oryzae, with Phytophthora infestans and in the experiment with Parastagonospora nodorum was no less than 70% throughout. In the experiment with Phakopsora pachyrhizi, the pest or weed control at 500 ppm is no less than 70%.
Regarding `CC(C)(COC(=O)c1ccccc1C(F)(F)F)NC(=O)c1cnc2c(c1)CCC2` [Compound 148, 2-(6,7-dihydro-5H-cyclopenta[b]pyridine-3-carboxamido)-2-methylpropyl 2-(trifluoromethyl)benzoate], the inhibition of growth at 300 ppm in the experiment with Botrytis cinerea [1] and in the experiment on Botrytis cinerea [2] was no less than 70% each time.
Regarding `C=C(C)CC(C)(COc1ccccc1F)NC(=O)c1cnc2ccsc2c1` (stereo not shown) [Compound 159, N-(1-(2-fluorophenoxy)-2,4-dimethylpent-4-en-2-yl)thieno[3,2-b] pyridine-6-carboxamide], the inhibition of growth at 300 ppm with Botrytis cinerea [1] and in the experiment on Parastagonospora nodorum was no less than 70% throughout.
As to `C=C(C)CC(C)(COc1ccccc1F)NC(=O)c1cnc2cc[nH]c2c1` (stereo not shown) [Compound 175, N-(1-(2-fluorophenoxy)-2,4-dimethylpent-4-en-2-yl)-1H-pyrrolo[3,2-b] pyridine-6-carboxamide], the inhibition of growth at 300 ppm in the experiment with Colletotrichum capsici, with Phytophthora infestans and in the experiment with Parastagonospora nodorum was no less than 70% each time.
Regarding `Cn1cc(Br)c2cc(C(=O)NC(C)(C)COCc3ccccc3F)cnc21` [Compound 194, 3-bromo-N-(1-((2-fluorobenzyl)oxy)-2-methylpropan-2-yl)-1-methyl-1H-pyrrolo[2,3-b]pyridine-5-carboxamide], the inhibition of growth at 300 ppm in the experiment with Botrytis cinerea [1] and in the experiment with Botrytis cinerea [2] was no less than 70% each time.
On to `CC(C)(COc1ccccn1)NC(=O)c1cnc2c(c1)CCC2` [Compound 202, N-(2-methyl-1-(pyridin-2-yloxy)propan-2-yl)-6,7-dihydro-5H-cyclopenta[b]pyridine-3-carboxamide], for which the inhibition of growth at 300 ppm in the experiment with Phytophthora infestans and in the experiment on Botrytis cinerea [2] was no less than 70% in each case.
`CC(C)(COc1ccccn1)NC(=O)c1cnc2ccsc2c1` [Compound 212, N-(2-methyl-1-(pyridin-2-yloxy)propan-2-yl)thieno[3,2-b] pyridine-6-carboxamide]: the inhibition of growth at 300 ppm in the experiment on Phytophthora infestans is no less than 70%.
As for `Cn1cc(Br)c2cc(C(=O)NC(C)(C)COc3ccc(F)cn3)cnc21` [Compound 216, 3-bromo-N-(1-((5-fluoropyridin-2-yl)oxy)-2-methylpropan-2-yl)-1-methyl-1H-pyrrolo[2,3-b]pyridine-5-carboxamide], the inhibition of growth at 300 ppm in the experiment with Phytophthora infestans was no less than 70%.
`CC(C)(COc1ccc(C#N)cn1)NC(=O)c1cnc2c(c1)CCC2` [Compound 223, N-(1-((5-cyanopyridin-2-yl)oxy)-2-methylpropan-2-yl)-6,7-dihydro-5H-cyclopenta[b]pyridine-3-carboxamide]: the inhibition of growth at 300 ppm in the experiment on Phytophthora infestans, in the experiment with Parastagonospora nodorum and in the experiment with Botrytis cinerea [2] was no less than 70% each time.
Regarding `Cn1ccc2cc(C(=O)NC(C)(C)COc3ccnc(Cl)c3)cnc21` [Compound 229, N-(1-((2-chloropyridin-4-yl)oxy)-2-methylpropan-2-yl)-1-methyl-1H-pyrrolo[2,3-b]pyridine-5-carboxamide], the inhibition of growth at 300 ppm with Phytophthora infestans was no less than 70%.
As for `Cn1ccc2cc(C(=O)NC(C)(C)COc3ccc(F)cn3)cnc21` [Compound 230, N-(1-((5-fluoropyridin-2-yl)oxy)-2-methylpropan-2-yl)-1-methyl-1H-pyrrolo[2,3-b]pyridine-5-carboxamide], the inhibition of growth at 300 ppm in the experiment with Colletotrichum capsici, in the experiment on Phytophthora infestans, with Parastagonospora nodorum and in the experiment with Botrytis cinerea [2] was no less than 70% each time.
Turning to `CC(C)(COc1ccc(F)cn1)NC(=O)c1cnc2c(c1)CCC2` [Compound 233, N-(1-((5-fluoropyridin-2-yl)oxy)-2-methylpropan-2-yl)-6,7-dihydro-5H-cyclopenta[b]pyridine-3-carboxamide], the inhibition of growth at 300 ppm with Phytophthora infestans was no less than 70%.
With `O=C(NC1(Cc2ccccc2)CC1)c1cc2c(nc1Cl)CCC2` [Compound 246, N-(1-benzylcyclopropyl)-2-chloro-6,7-dihydro-5H-cyclopenta[b]pyridine-3-carboxamide], the inhibition of growth at 300 ppm in the experiment on Phytophthora infestans is no less than 70%.
Same read-out and setting: in the case of `O=C(NCC1(c2ccccc2)CC1)c1cc2c(nc1Cl)CCC2` [Compound 248, 2-chloro-N-((1-phenylcyclopropyl)methyl)-6,7-dihydro-5H-cyclopenta[b]pyridine-3-carboxamide] it was no less than 70%.
Consider `COc1nc2c(cc1C(=O)NC(C)CCc1ccccc1)CCC2` (stereo not shown) [Compound 249, 2-methoxy-N-(4-phenylbutan-2-yl)-6,7-dihydro-5H-cyclopenta[b]pyridine-3-carboxamide], for which the inhibition of growth at 300 ppm with Phytophthora infestans and with Parastagonospora nodorum was no less than 70% throughout.
With `CC(CCc1ccccc1)NC(=O)c1cc2c(nc1Cl)CCC2` (stereo not shown) [Compound 250, 2-chloro-N-(4-phenylbutan-2-yl)-6,7-dihydro-5H-cyclopenta[b]pyridine-3-carboxamide], the inhibition of growth at 300 ppm in the experiment with Phytophthora infestans was no less than 70%.
